# Test results from patent publication US20150299219A1, “BICYCLIC PYRAZOLONE COMPOUNDS AND METHODS OF USE” (Calitor Sciences, LLC, priority 2014, published 2015).
# What was measured:
# [1] = Compound stability in rat liver microsomes; format: in vitro ADME; conditions: for half-life: pH 7.4, 0.5 mg protein/mL, NADPH, 37° C.; for CLint scaled: pH 7.4, in vivo CLint extrapolated
# Description: Human or rat liver microsomes incubations were conducted in duplicate in polypropylene tubes. The typical incubation mixtures consisted of human or rat liver microsomes (0.5 mg protein/mL), compounds of interest (5 μM) and NADPH (1.0 mM) in a total volume of 200 μL potassium phosphate buffer (PBS, 100 mM, pH 7.4). Compounds were dissolved in DMSO and diluted with PBS such that the final concentration of DMSO was 0.05%. The enzymatic reactions were commenced with the addition of protein after a 3-min preincubation and incubated in a water bath open to the air at 37° C. Reactions were terminated at various time points (0, 5, 10, 15, 30, 60 min) by adding equal volume of ice-cold acetonitrile. The samples were stored at −80° C. until LC/MS/MS assays.
# The concentrations of compounds in the incubation mixtures of human or rat liver microsomes were determined by a LC/MS/MS method. The ranges of the linearity in the concentration range were determined for each tested compounds.
# A parallel incubation was performed using denatured microsomes as the negative control, and reactions were terminated at various time points (0, 15, 60 min) after incubation at 37° C.
# Dextromethorphan (70 μM) was selected as the positive control, and reactions were terminated at various time points (0, 5, 10, 15, 30, 60 min) after incubation at 37° C. Both positive and negative control samples were included in each assay to ensure the integrity of the microsomal incubation system.
# Alternatively, the stability of some of the compounds disclosed herein in human (or rat) liver microsomes were also conducted in the following protocol. The incubations were conducted in duplicate in polypropylene tubes. The typical incubation mixtures consisted of liver microsomes (final concentration: 0.5 mg protein/mL), compounds (final concentration: 1.5 μM) in a total volume of 30 μL K-buffer (contain 1.0 mM EDTA, 100 mM, pH7.4). Compounds were dissolved in DMSO and diluted with K-buffer such that the final concentration of DMSO was 0.2%. The enzymatic reactions were commenced with the addition of 15 μL of NADPH (final concentration: 2 mM) after 10 min preincubation and incubated in a 37° C. incubator. Reactions were terminated at various time points (0, 15, 30, 60 min) by adding 135 μL acetonitrile (contain IS). Protein is removed by centrifugation with 4000 rpm, 10 min. Supernatant was collected for LCMS/MS analysis
# In the above protocol, ketanserin (1 μM) was selected as the positive control, and reactions were terminated at various time points (0, 15, 30, 60 min) after incubation at 37° C. The positive control sample was included in each assay to ensure the integrity of the microsomal incubation system.
# The concentrations of compounds in human or rat liver microsome incubations were plotted as a percentage of the relevant zero time point control for each reaction. The in vivo CLint were extrapolated (ref: Naritomi, Y.; Terashita, S.; Kimura, S.; Suzuki, A.; Kagayama, A.; and Sugiyama, Y.; Prediction of human hepatic clearance from in vivo animal experiments and in vitro metabolic studies with liver microsomes from animals and humans. Drug Metab. Dispos., 2001, 29: 1316-1324).
# [2] = target: T1, Mer (h) (Homo sapiens, UniProt Q12866); assay: Mer (h) kinase assay; format: biochemical
# T1 construct: purchased Millipore UK Ltd
# T1 sequence (Q12866 21-999): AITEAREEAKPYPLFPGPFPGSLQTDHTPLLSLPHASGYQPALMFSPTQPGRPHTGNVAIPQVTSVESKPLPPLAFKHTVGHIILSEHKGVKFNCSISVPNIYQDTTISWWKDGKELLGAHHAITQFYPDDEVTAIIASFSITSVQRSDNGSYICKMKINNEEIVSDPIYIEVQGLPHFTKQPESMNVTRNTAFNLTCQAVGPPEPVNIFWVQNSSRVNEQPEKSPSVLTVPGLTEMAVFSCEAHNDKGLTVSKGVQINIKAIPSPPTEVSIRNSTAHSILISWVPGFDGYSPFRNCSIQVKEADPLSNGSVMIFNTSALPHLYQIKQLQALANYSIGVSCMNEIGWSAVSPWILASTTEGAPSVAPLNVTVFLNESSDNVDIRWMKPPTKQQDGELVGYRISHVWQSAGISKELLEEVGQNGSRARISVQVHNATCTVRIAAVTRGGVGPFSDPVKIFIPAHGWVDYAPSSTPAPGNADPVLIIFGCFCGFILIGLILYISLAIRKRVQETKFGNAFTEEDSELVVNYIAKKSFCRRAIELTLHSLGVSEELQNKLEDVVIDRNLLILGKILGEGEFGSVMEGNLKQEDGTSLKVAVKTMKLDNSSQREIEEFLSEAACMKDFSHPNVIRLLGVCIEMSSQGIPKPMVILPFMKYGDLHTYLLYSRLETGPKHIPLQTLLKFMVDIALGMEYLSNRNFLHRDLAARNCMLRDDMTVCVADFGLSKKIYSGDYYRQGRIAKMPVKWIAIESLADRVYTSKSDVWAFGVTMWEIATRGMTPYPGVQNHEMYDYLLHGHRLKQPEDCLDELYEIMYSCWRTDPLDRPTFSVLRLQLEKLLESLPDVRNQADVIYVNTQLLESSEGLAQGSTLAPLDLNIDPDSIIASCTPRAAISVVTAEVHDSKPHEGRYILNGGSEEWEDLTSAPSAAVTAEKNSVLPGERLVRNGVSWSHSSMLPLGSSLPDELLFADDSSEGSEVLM
# Description: The above assay procedure can be used to determine the IC50 for inhibition and/or the inhibition constant, Ki. The IC50 is defined as the concentration of compound required to reduce the enzyme activity by 50% under the condition of the assay. The IC50 value is estimated by preparing a 10 point curve using a 1/2 log dilution series (for example, a typical curve may be prepared using the following compound concentrations: 10 μM, 3 μM, 1 μM, 0.3 μM, 0.1 μM, 0.03 μM, 0.01 μM, 0.003 μM, 0.001 μM and 0 μM).
# Mer (h) is incubated with 8 mM MOPS pH 7.0, 0.2 mM EDTA, 30 mM NaCl, 250 μM GGMEDIYFEFMGGKKK, 10 mM MgAcetate and [γ-^33P-ATP] (specific activity approx. 500 cpm/pmol, concentration as required). The reaction is initiated by the addition of the MgATP mix. After incubation for 40 minutes at room temperature, the reaction is stopped by the addition of 3% phosphoric acid solution. 10 μL of the reaction is then spotted onto a P30 filtermat and washed three times for 5 minutes in 75 mM phosphoric acid and once in methanol prior to drying and scintillation counting.
# The kinase assays described herein were performed at Millipore UK Ltd, Dundee Technology Park, Dundee DD2 1SW, UK.
SMILES,half-life [1],CLint scaled [1],IC50 [2]
"CC(=O)Nc1cc(Oc2ccc(NC(=O)c3c4n(n(-c5ccccc5)c3=O)CCC4)cc2)ccn1 [Ex. 3, N-(4-((2-acetamidopyridin-4-yl)oxy)phenyl)-2-oxo-1-phenyl-2,4,5,6-tetrahydro-1H-pyrrolo[1,2-b]pyrazole-3-carboxamide]",5.7 h,7.26 mL/min/kg,35 nM
"O=C(Nc1ccc(Oc2ccnc(NC(=O)C3CC3)c2)cn1)c1c2n(n(-c3ccccc3)c1=O)CCC2 [Ex. 14, N-(5-((2-(cyclopropanecarboxamido)pyridin-4-yl)oxy)pyridin-2-yl)-2-oxo-1-phenyl-2,4,5,6-tetrahydro-1H-pyrrolo[1,2-b]pyrazole-3-carboxamide]",3.32 h,12.5 mL/min/kg,8 nM
"CC(=O)Nc1cc(Oc2ccc(NC(=O)c3c4n(n(-c5ccccc5)c3=O)CCOC4)nc2)ccn1 [Ex. 12, N-(5-((2-acetamidopyridin-4-yl)oxy)pyridin-2-yl)-2-oxo-1-phenyl-2,4,6,7-tetrahydro-1H-pyrazolo[5,1-c][1,4]oxazine-3-carboxamide]",16.6 h,2.49 mL/min/kg,74 nM
"O=C(Nc1ccc(Oc2ccnc(NC(=O)C3CC3)c2)cc1)c1c2n(n(-c3ccccc3)c1=O)CCC2 [Ex. 2, N-(4-((2-(cyclopropanecarboxamido)pyridin-4-yl)oxy)phenyl)-2-oxo-1-phenyl-2,4,5,6-tetrahydro-1H-pyrrolo[1,2-b]pyrazole-3-carboxamide]",3.19 h,13 mL/min/kg,3 nM
"O=C(Nc1ccc(Oc2ccnc(NC(=O)C3CC3)c2)cc1)c1c2n(n(-c3ccccc3)c1=O)CCOC2 [Ex. 19, N-(4-((2-(cyclopropanecarboxamido)pyridin-4-yl)oxy)phenyl)-2-oxo-1-phenyl-2,4,6,7-tetrahydro-1H-pyrazolo[5,1-c][1,4]oxazine-3-carboxamide]",2.87 h,14.4 mL/min/kg,5 nM
